Measurements reported in patent publication US12492373B2, “Production method for nerve tissue” (Racthera Co., Ltd., priority 2014, dated 2025).

Tests used:
[1] = test system: human iPS cells (1231A3 strain); assay: Immunostaining of aggregate sections for retinal tissue markers Chx10, Rx; format: cell-based; settings: day 20
Experimental: Here, as step 3, culturing was performed under the following condition 1 and condition 2: Under condition 1(+BMP), on day 6 after the start of suspension culturing, the medium was changed to a medium free of Y27632 and containing human recombinant BMP4 (manufactured by R&D) such that the final concentration of exogenous human recombinant BMP4 was 1.5 nM (55 ng/ml) (FIG. 6B, D). Under condition 2(−BMP), on day 6 after the start of suspension culturing, a half amount of the medium was changed to a medium free of Y27632 and free of a BMP signal transduction pathway activating substance, without adding exogenous human recombinant BMP4 (FIG. 6A, C).
The thus-prepared cell aggregates on day 23 after the start of suspension culturing, which were produced from the above iPS cells that underwent a preconditioning treatment in step 1 as a starting material were fixed with 4% para-formaldehyde to prepare frozen sections. These frozen sections were immunostained for Chx10 (anti-Chx10 antibody, Exalpha, sheep), which is one of the retinal tissue markers, or Rx (anti-Rx antibody, Takara, guinea pig), which is one of the retinal tissue markers. These immunostained sections were observed under an inverted fluorescence microscope.
Cell aggregate were prepared according to the method described in Example 8 under conditions in which human iPS cells using StemFit medium as a feeder-free medium were used as a starting material, TGFβR inhibiting substance (SB431542) or BMPR inhibiting substance (LDN193189) was used in step 1, Shh signal transduction pathway activating substance was used in step 2, and BMP signal transduction pathway activating substance was added or not added in step 3. Neural tissues were formed in all the aggregates formed under all these conditions on day 23 after the start of suspension culturing. The above cell aggregates were fixed with 4% para-formaldehyde to prepare frozen sections. These frozen sections were immunostained for Chx10 (anti-Chx10 antibody, Exalpha, sheep), which is one of the retinal tissue markers, or Rx (anti-Rx antibody, Takara, guinea pig), which is one of the retinal tissue markers. These immunostained sections were observed under an fluorescence microscope. […] Furthermore, it was found from the analysis of serial sections that, in a neural tissue having a high (not less than 95%) proportion of Chx10-positive cells, Rx is also strongly positive (FIG. 9B, D, F, H).
Cell aggregates were prepared according to the method described in Example 10 by using, as a starting material, human iPS cells using Essential 8 medium as a feeder-free culturing, under conditions that TGFβR inhibiting substance (SB431542) are used in step 1, a Shh signal transduction pathway activating substance are used in step 2, and a BMP signal transduction pathway activating substance are added or are not added in step 3. The cell aggregates on day 18 after the start of suspension culturing were each fixed with 4% para-formaldehyde to prepare frozen section. These frozen sections were immunostained for Chx10 (anti-Chx10 antibody, Exalpha, sheep), which is one of the retinal tissue markers, or Rx (anti-Rx antibody, Takara, guinea pig), which is one of the retinal tissue markers, and observed under a fluorescence microscope. […] Furthermore, it was found from the analysis of serial sections that, in a neural tissue having a high (not less than 95%) proportion of Chx10-positive cells, Rx is also strongly positive. […]
A Cell aggregate was formed on day 18 after the start of suspension culturing under every conditions, and a neural tissue was formed (FIG. 14, upper panel). The above cell aggregates on day 18 after the start of suspension culturing were each fixed with 4% para-formaldehyde to prepare frozen section. […]

[2] = test system: human iPS cells (1231A3 strain); assay: Neural tissue / neuroepithelium formation in cell aggregates, bright field observation; format: cell-based; settings: day 20
Experimental: The above human iPS cells were treated with the cell dispersion solution by using TrypLE Select (Life Technologies), further dispersed into single cells by pipetting operation, and the above human iPS cells dispersed into single cells were suspended in 100 μl of a serum-free medium at 1.2×10^4 cells per well of a non-cell-adhesive 96-well culture plate ([…], manufactured by SUMITOMO BAKELITE), and subjected to suspension culturing at 37° C., 5% CO2. As the serum-free medium (gfCDM+KSR) therefor, a serum-free medium which is a 1:1 mixture of F-12 medium and IMDM medium supplemented with 10% KSR, 450 μM 1-monothioglycerol, 1× Chemically defined lipid concentrate was used. At the time of the start of suspension culturing (day 0 after the start of suspension culturing, start of step 2), Y27632 (final concentration 20 μM) was added to the above serum-free medium. By day 2 after the start of suspension culturing, cell aggregates were formed under both conditions with preconditioning and conditions without preconditioning (step 2 completed, step 3 start). On day 3 after the start of suspension culturing, a serum-free medium (50 μl) free of Y27632 was added. On day 6 or later after the start of suspension culturing, a half amount of the medium was changed to the above serum-free medium free of Y27632 once per 2-4 days. In the half-medium change operation, a half volume, namely 75 μl, of the medium in the culture vessel was discarded, the above fresh serum-free medium (75 μl) was added to make the total medium amount 150 μl. […]
At the time of the start of suspension culturing (day 0 after the start of suspension culturing, start of step 2), the cells were cultured under the following 2 conditions including condition 1 and condition 2. As condition 1(+SAG), at the time of the start of suspension culturing, Y27632 (final concentration 20 μM) and SAG (Shh signal transduction pathway activating substance, 300 nM) were added to the above serum-free medium. As condition 2(−SAG), at the time of the start of suspension culturing, Y27632 (final concentration 20 μM) was added to the above serum-free medium and SAG was not added. By day 2 after the start of suspension culturing, cell aggregates were formed (step 2 completed, step 3 start) under both conditions. On day 3 after the start of suspension culturing, a medium (50 μl) free of Y27632, SAG and containing human recombinant BMP4 (manufactured by R&D) was added such that the final concentration of exogenous human recombinant BMP4 was 1.5 nM (55 ng/ml). On day 6 after the start of suspension culturing, a half amount of the medium was changed with a serum-free medium free of Y27632, SAG and human recombinant BMP4. Thereafter, a half amount of the medium was changed, once every 2-4 days, with the above serum-free medium free of Y27632, SAG, and human recombinant BMP4.
The thus-prepared cells were subjected to bright field observation on day 18 after the start of suspension culturing under an inverted microscope (KEYENCE) (FIG. 15).
At the time of the start of suspension culturing (day 0 after the start of suspension culturing, start of step 2), the cells were cultured under the following 2 conditions including condition 1 and condition 2. As condition 1(+SAG), at the time of the start of suspension culturing, Y27632 (final concentration 20 μM) and SAG (Shh signal transduction pathway activating substance, final concentration 30 nM) were added to the above serum-free medium. As condition 2(−SAG), at the time of the start of suspension culturing, Y27632 (final concentration 20 μM) was added to the above serum-free medium and SAG was not added. By day 2 after the start of suspension culturing, cell aggregates were formed under both conditions (step 2 completed, step 3 start). […]

[3] = A83-01 0.5 μM 1 day in step 1, SAG 30 nM in step 2, BMP4 1.5 nM on day 3

Row | Compound | proportion of Chx10-positive cells in the total cells ([1]; A83-01 0.5 μM and SAG 300 nM in step 1, substance added in step 2 (SAG 30 nM, Purmorphamine 0.2 μM or human recombinant Shh 300 ng/ml), BMP4 1.5 nM on day 3) | cell aggregate and neural tissue formation [2, 3] | cell aggregate and neural tissue formation ([2]; step 1 for 1 day: A83-01 0.5 μM alone or with SAG 300 nM, Purmorphamine 0.2 μM, or human recombinant Shh 50 ng/ml or 300 ng/ml, SAG 30 nM in step 2, BMP4 1.5 nM on day 3) | proportion of Chx10-positive cells in the total cells [1, 3]
1 | c1ccc2c(Oc3nc(Nc4ccc(N5CCOCC5)cc4)c4ncn(C5CCCCC5)c4n3)cccc2c1 [Purmorphamine, 9-cyclohexyl-N-[4-(4-morpholinyl)phenyl]-2-(1-naphthalenyloxy)-9H-purin-6-amine] | about 90% | – | – | –
2 | Cc1cccc(-c2nn(C(=S)Nc3ccccc3)cc2-c2ccnc3ccccc23)n1 [A83-01, 3-(6-methyl-2-pyridinyl)-N-phenyl-4-(4-quinolinyl)-1H-pyrazole-1-carbothioamide] | – | a neural tissue can be formed efficiently | a neural tissue can be produced efficiently | about 20%
